# According to PMC9572397, “Garcinia cambogia Phenolics as Potent Anti-COVID-19 Agents: Phytochemical Profiling, Biological Activities, and Molecular Docking” (Plants, 2022):
# Molecular target: SARS-CoV-2 3CL Protease (Severe acute respiratory syndrome coronavirus 2, UniProt P0DTD1)
# Assay: 3CL protease SARS-CoV-2 activity (M^Pro assay), fluorescence kit
# Type: biochemical
# Conditions: for Kinetic Activity: positive control 120; for ∆RFU: ∆T 30, positive control 100
SMILES,IC50,Kinetic Activity (Conc. 0.1),∆RFU (Conc. 0.1),Kinetic Activity (Conc. 1),∆RFU (Conc. 1),Kinetic Activity (Conc. 10),∆RFU (Conc. 10),Kinetic Activity (Conc. 100),∆RFU (Conc. 100),"reduction of the protease activity (in words) (final concentration of 50 μM, compared to the plumbagin positive standard)"
"O=c1cc(-c2ccc(O)c(-c3c(O)cc(O)c4c(=O)cc(-c5ccc(O)cc5)oc34)c2)oc2cc(O)cc(O)c12 [Compound 2, amentoflavone]",136 µM,117.505,97.92,112.981,94.15,94.7529,78.96,44.4244,37.02,
"O=c1cc(-c2ccc(O)cc2)oc2c([C@@H]3O[C@H](CO)[C@@H](O)[C@H](O)[C@H]3O)c(O)cc(O)c12 [Compound 3, vitexin]",231 µM,117.109,97.59,110.257,91.88,99.133,82.61,46.7405,38.95,
"C[C@@H]1O[C@@H](OC[C@H]2O[C@@H](Oc3c(-c4ccc(O)c(O)c4)oc4cc(O)cc(O)c4c3=O)[C@H](O)[C@@H](O)[C@@H]2O)[C@H](O)[C@H](O)[C@H]1O [Compound 4, rutin]",,116.077,96.73,110.065,91.72,92.9049,77.42,32.3043,26.92,
"C[C@@H]1O[C@@H](O[C@H]2[C@H](Oc3cc(O)c4c(c3)O[C@H](c3ccc(O)cc3)CC4=O)O[C@H](CO)[C@@H](O)[C@@H]2O)[C@H](O)[C@H](O)[C@H]1O [Compound 5, naringin]",28.6 µM,117.637,98.03,101.965,84.97,80.2328,66.86,25.8243,21.52,significant reduction
"Oc1cc(O)c2c(c1)O[C@H](c1ccc(O)c(O)c1)[C@@H](O)C2 [Compound 6, catechin]",90.3 µM,113.953,94.96,107.173,89.31,83.2328,69.36,33.3003,27.75,
"O=C(O)/C=C/c1ccc(O)cc1 [Compound 7, p-coumaric acid]",471 µM,118.477,98.73,113.905,94.92,100.333,83.61,42.0724,35.06,
"O=C(O)c1cc(O)c(O)c(O)c1 [Compound 8, gallic acid]",178 µM,117.505,97.92,109.237,91.03,93.0969,77.58,29.8323,24.86,
"CC1=CC(=O)c2c(O)cccc2C1=O [Plumbagin, reference compound]",87.6 µM,115.069,95.89,102.853,85.71,77.9528,64.96,27.0243,22.52,
